This passage reports RP-LC retention time results from the METLIN SMRT retention time set (Domingo-Almenara et al. 2019).

Structures are written as SMILES.

The data set can be described thus: gradient 5% acetonitrile 3 min, to 50% in 2 min, to 85% in 15 min, held 3 min, 100 µL/min. The note with it: column: Zorbax Extend-C18 2.1 x 50 mm; eluents: water / acetonitrile, 0.1% formic acid. In short, it runs like this: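 Pure standards were analyzed in mixtures of ~100 molecules using HPLC coupled to a quadrupole time-of-flight mass spectrometer, in both positive and negative ionization mode. Separation used a Zorbax Extend-C18 column (2.1 × 50 mm, 1.8 μm) at 100 μL/min, with water and acetonitrile each containing 0.1% formic acid. Dead and dwell volumes were 40 μL and 900 μL, and data were collected over 3 months. Retention time was read from computationally picked adduct peaks, each inspected manually.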
For the compound `CCc1ccc(CNC(=O)c2nc3cccnc3n(CC)c2=O)cc1`, the RP-LC retention time is 915 s.
As for `COc1ccc(S(=O)(=O)N2CC3CN(C(=O)C(C)Oc4ccccc4)CC(C2)O3)cc1` (stereo not given), the figure is 844 s.
The value for `Cc1cc(N2CCN(C(=O)CCc3ccccc3)CC2)nc2nnc(C)n12` was 616 s; that for `Cn1cc(-c2nc(C(=O)Nc3cc(F)ccc3Cl)cs2)c2cccnc21` was 1260 s.
As for `CCOC(=O)c1nc(Nc2ccc(C(=O)OCC(C)C)cc2)c2ccccc2n1`, the figure is 1090 s; as for `Cc1ccccc1NC(=O)C(=O)c1ccc[nH]1`, 862 s.
`O=C(CN1C(=O)C2CCCCN2C(=O)c2ccccc21)Nc1ccc(C(F)(F)F)cc1` (stereo not given) registered an RP-LC retention time of 890 s.
As for `O=C(NCc1cccs1)C1CCN(c2cnc(N3CCSCC3)nc2)CC1`, the figure is 751 s; as for `O=C(C1CCN(c2ncccc2-c2nc(-c3ccccc3)no2)CC1)N1CCN(c2ncccn2)CC1`, 967 s; as for `Cc1ccc(C)c(N2CCN(c3ccnc(SCC(=O)Nc4cc(Cl)ccc4C)n3)CC2)c1`, 952 s.
The value for `Cn1c(N2CCN(C(=O)c3ccc(F)c(F)c3)CC2)cc(=O)n(C)c1=O` was 656 s.
The value for `Cc1nc(-c2csc(S(=O)(=O)N3CCC(C(=O)N4CCOCC4)CC3)c2)no1` was 719 s; that for `Cc1cc2[nH]c(C(=O)Nc3c(F)cccc3F)c(CN3CCOCC3)c2s1` was 675 s.
With `COC(=O)c1ccc(NC(=O)CN2CC(c3nc(-c4cnccn4)no3)C2)cc1`, the RP-LC retention time was 561 s.
As for `Cc1ccccc1Cn1c(CN2CCC(C(=O)N3CCCC3)CC2)cc2ccccc21`, the figure is 757 s; as for `O=C(C1CCCN(c2nccnc2Sc2ccccc2)C1)N1CCOCC1` (stereo not given), 850 s; as for `COCCNC(=O)c1nc(N2CCSCC2)c2c(C)cc(C)nc2n1`, 591 s.
The value for `Cc1cc(C)c(C)c(S(=O)(=O)Nc2ccc(C(=O)NCc3ccccn3)cc2)c1C` was 630 s.
The value for `O=C(NC1CC1)C1COC2(CCN(C(=O)c3cccc(Cl)c3)CC2)N1C(=O)c1cccc(F)c1` (stereo not given) was 738 s; that for `Cc1nc(Nc2ccccc2)sc1C(=O)NCC1CC1` was 800 s; that for `CCN1C(=O)c2ccccc2Oc2ccc(C(=O)NC3CC3)cc21` was 751 s.
Compound `O=C(NCC1CCCO1)c1nc(-c2ccnc(N3CCCCC3)c2)no1` (stereo not given) had an RP-LC retention time of 654 s.
The compound `CCOC(=O)c1c(S(=O)(=O)N2CCC(C(=O)Nc3cccc(C)n3)CC2)c(C)n(C)c1C` displayed an RP-LC retention time of 701 s.
As for `O=C(COc1ccc(F)cc1)Nc1cnc(N2CCCCCC2)nc1`, the figure is 957 s; as for `CCn1cc(-c2nc(C)c(C(=O)Nc3ccc(F)cc3F)s2)c2cccnc21`, 1010 s.
As for `O=C(NC1CCN(Cc2ccccc2)CC1)c1ccccc1Cl`, the RP-LC retention time came out at 549 s.
`CCc1cc(=O)n(CC(=O)Nc2ccc(OC)cc2)c(N)n1` returned an RP-LC retention time of 595 s.
Take `COc1cccc(C(C#N)N2N=C(C)CC2c2ccccc2)c1O` (stereo not given): the RP-LC retention time is 965 s.
As for `Cc1nn(-c2cccc(Cl)c2)c2nc(N3CCCC(C(=O)NC4CC4)C3)sc12` (stereo not given), the figure is 1060 s; as for `Cn1cnc2c(C(=O)N3CCC(c4ccccc4)C3)nn(-c3ccccc3)c2c1=O` (stereo not given), 851 s.
`O=C(Cn1nc2c3sc(N4CCCCC4)nc3ncn2c1=O)Nc1ccccc1` showed an RP-LC retention time of 768 s.
Regarding `O=C(NCc1cccc(F)c1)C1CCCN(c2cnc3nccnc3c2)C1` (stereo not given), the RP-LC retention time amounted to 702 s.
The value for `Cc1nnc2cc(N3CCN(S(=O)(=O)c4ccc(Br)cc4)CC3)cnn12` was 740 s; that for `CCOc1ccc(-c2ccc(C)c(NC(=O)c3ccc(S(=O)(=O)N(C)C)cc3)c2)nn1` was 778 s; that for `CCOCCCNC(=O)C1CCN(c2cc(=O)n(C)c(=O)n2CC)CC1` was 686 s.
As for `O=C1Nc2cc(C(=O)N3CCN(C(=O)c4ccco4)CC3)ccc2N2CCCCC12` (stereo not given), the figure is 677 s.
The value for `CCc1nc(-c2ccc(-c3noc(CN4C(=O)COc5ccc(Cl)cc54)n3)cc2)cs1` was 1270 s; that for `COCCCNC(=O)Cn1c(=O)c(S(=O)(=O)c2ccccc2)cc2cc(C)ccc21` was 743 s.
`CC1(C(=O)NCc2ccccc2)CCCN(C(=O)NCCc2ccccc2)C1` (stereo not given) registered an RP-LC retention time of 840 s.
The value for `CCCC(=O)N1CCc2c([nH]c3ccccc23)C1c1ccc(SC)cc1` (stereo not given) was 1170 s; that for `CCCCOc1ccc(Nc2cc(Cl)ccc2C(=O)O)cn1` was 1260 s.
The value for `O=C(CC1CCN(C(=O)NCc2ccccc2)CC1)NCc1ccc(F)cc1` was 737 s.
As for `Cc1oc(-c2[nH]ncc2C(=O)N(C)C)cc1S(=O)(=O)NCCN1CCOCC1`, the figure is 543 s; as for `COc1ccc(NC(=O)c2nc(C(C)C)oc2C)cc1Cl`, 1080 s.
Consider `CCn1cc(-c2nc(C)c(C(=O)N3CCCCCC3)s2)c2cccnc21`, for which the RP-LC retention time was 942 s.
As for `COc1cc(NC(=O)CSc2ccc(N3CCCC(C(=O)NC4CC4)C3)nn2)cc(OC)c1` (stereo not given), the figure is 642 s.
As for `CCC(C(=O)N1CCn2c(C)nnc2C1)c1ccccc1` (stereo not given), the figure is 643 s.
The value for `CC(C)NC(=O)Cc1cccn1-c1cccc(Cl)c1` was 870 s; that for `CCCN1C(=O)C(C)(C(=O)NCc2ccc(C)cc2)Oc2cccnc21` (stereo not given) was 616 s; that for `O=C(Nc1ccc(-c2nnc3n2CCCC3)cc1)C1CCCCC1` was 699 s.
Take `CC(=O)N1CCC(c2nc(-c3ccc(CNC(=O)C4CC4)s3)no2)CC1`: the RP-LC retention time was 661 s.
As for `O=C(NC1CCCCC1)N1CCC(CCc2nc(C3CCOCC3)no2)CC1`, the figure is 709 s; as for `CC(C)CC(=O)N1CCc2c(c(C(=O)NCc3ccc4c(c3)OCO4)nn2C)C1`, 745 s.
Turning to `CC(C)CN(CC(C)C)C(=O)C1CCN(S(=O)(=O)c2ccc3c(c2)CCCC(=O)N3)CC1`, the RP-LC retention time was 851 s.
As for `CC1=C(c2ccc(C)cc2)S(=O)(=O)N=C1N1CCC(NC(=O)C2CCCO2)CC1` (stereo not given), the figure is 902 s; as for `CCOCCCNCc1ccc(-c2ccc(F)cc2)o1`, 672 s.
As for `O=C(Nc1ccccc1F)Nc1c(-c2ccccc2)nc2ccccn12`, the figure is 666 s.
As for `Cc1ccn2cc(-c3ccc(NS(=O)(=O)c4ccc(I)cc4)cc3)nc2n1`, the figure is 701 s; as for `CCc1ccc(NC(=O)Cn2c(N)nc(C)c(C)c2=O)cc1`, 596 s; as for `COc1ccc2c(=O)c3c(=O)n(Cc4ccccc4)c(-c4cccs4)nc3oc2c1`, 743 s.
`COc1ccc(C(=O)N2[C@H]3CC[C@@H]2c2cnc(C)nc2C3)cn1`: the RP-LC retention time worked out at 622 s.
`CCC(=O)N1CCc2sc(C(=O)N3CCN(c4ccccn4)CC3)cc2C1` had an RP-LC retention time of 582 s.
`COc1cc(NC(=O)C2CCN(c3c(C(=O)N4CCC(C)CC4)cnc4snc(C)c34)CC2)cc(OC)c1` registered an RP-LC retention time of 1010 s.
For `Cc1ccc(CNC(=O)C(C)n2c3ccccc3c3cnn(C)c(=O)c32)o1` (stereo not given), the RP-LC retention time was determined as 882 s.
As for `CC1CCN(S(=O)(=O)c2ccc3c(c2)CCCC(=O)N3CC(=O)NCc2ccc(F)cc2)CC1`, the figure is 926 s.
The compound `Cc1[nH]nc(-c2cc(S(=O)(=O)NCC(C)c3ccccc3)c(C)s2)c1C` (stereo not given) came in with an RP-LC retention time of 936 s.
The value for `CCn1ncn2cc(S(=O)(=O)Nc3ccc(C)cc3C)cc2c1=O` was 937 s.
The value for `COc1ccc(NC(=O)Cc2nnc(-c3ccc4ncccc4c3)o2)cc1` was 685 s; that for `Cn1ncc2c(N3CCSCC3)nc(C(=O)NCc3ccc(C(F)(F)F)cc3)nc21` was 907 s.
Take `Cc1nc2cc(N3CCCC(C(=O)Nc4ccc5c(c4)OCO5)C3)cnc2nc1C` (stereo not given): the RP-LC retention time is 695 s.
Compound `CC(C)NC(=O)c1ccc(OCC2CCCN(C(=O)c3cccc(F)c3)C2)cc1` (stereo not given) returned an RP-LC retention time of 846 s.
Consider `CCC(C)n1c(=O)c2ccccc2n(Cc2nc(-c3ccccc3Cl)no2)c1=O` (stereo not given), for which the RP-LC retention time is 1170 s.
The value for `CN(CCc1noc(COc2ccc(Cl)cc2)n1)C(=O)Nc1ccc(F)cc1` was 934 s; that for `COc1ccccc1OCCNC(=O)COc1ccc(NC(=O)C2CC2)cn1` was 708 s; that for `CC(C)n1c(C2CCN(C(=O)Nc3ccc(Cl)cc3F)C2)nc2ccncc21` (stereo not given) was 567 s.
As for `CC(Oc1cccc(Cl)c1)C(=O)NCC1(C)CCOCC1` (stereo not given), the figure is 816 s.
As to `O=C1COc2ccc(S(=O)(=O)N3CCC(C(=O)NCCc4ccccc4)CC3)cc2N1`, the RP-LC retention time is 740 s.
The value for `Cc1ccc(-n2nc(N3CCN(C(=O)Nc4ccccc4C)CC3)ccc2=O)cc1` was 787 s; that for `Cc1ccc(-c2nc(Cn3cccc3C(=O)NCc3cccs3)no2)cc1` was 1040 s.
As for `CN1CC(=O)N(CC(=O)Nc2ccc(OC(F)(F)F)cc2)c2ccccc2C1=O`, the figure is 777 s.
